# The source made the active and inactive calls.
# What was measured:
# CHO = CHO cell viability loss, potency – luminescence, cytotoxicity control for TLR9-MyD88 binding inhibitor project, dose response (AID 588339); format: functional, cell-based, hamster; details: Cricetulus griseus;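 note: CHO cells stably coexpressing TLR9 and MyD88 fusions from primary screen; compound exposure lasted 48 hours before viability readout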
# Beta Lactamase = Beta Lactamase (Pseudomonas aeruginosa, UniProt Q932Y6); test: BLA reporter interference, concentration series – BLA reporter cells, FRET fluorescence, artefact control for TLR9-MyD88 binding inhibitor project, dose response (AID 588341); format: cell-based;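 note: cell based assay in CHO-K1 cells stably expressing beta-lactamase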
# [1] = inhibition of ARNT PAS-B/TACC3 complex formation – biochemical, AlphaScreen, cherry-picked samples, confirmation (AID 651703); format: functional, Homo sapiens;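 note: His-tagged ARNT PAS-B domain paired with GST-TACC3 E629A dimer coactivator fragment; potency of inhibitors that break up the complex and lower AlphaScreen signal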
# [2] = target: Photoreceptor-specific nuclear receptor (Homo sapiens, UniProt Q9Y5X4); format: functional, cell-based;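 note: CHO-S cells with Gal4-NCOR and VP16-NR2E3 two-hybrid luciferase reporter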
# [3] = Fluorescence-based cell-based high throughput dose response assay for inhibitors of the interaction of nucleotide-binding oligomerization domain containing 2 (NOD2) and the receptor-interacting serine-threonine kinase 2 (RIPK2).; format: functional; details: Homo sapiens
# Paired box protein Pax-8 = Paired box protein Pax-8 (Homo sapiens, UniProt Q06710); test: PAX8 transcriptional activity inhibition in RMG-I – RMG-I cells, luciferase, cherry-pick, dose response (AID 687027); format: functional, cell-based;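 note: luciferase reporter driven by Pax8 target thyroperoxidase promoter measured by SteadyGlo luminescence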
# [4] = reduced cellular PGC1a acetyl-lysine signal – cell-based, cherry-picked samples, dose response (AID 720514); format: functional;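 note: potency may reflect raised or lowered acetylation signal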
# [5] = target: Hepatocyte nuclear factor 4-alpha (Homo sapiens, UniProt P41235); format: functional, cell-based;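 note: biochemical luminescence-based dose-response counterscreen measuring inhibition of HNF4 dimerization, run alongside a screen for blockers of ABHD5–perilipin-5 interaction; split luciferase complementation of HNF4 fusion proteins in cell lysate measuring dimerization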
# HEK293 = test: EBV LMP1 TES2 canonical NF-kB signalling blockers – cell-based, HEK293, luciferase, cherry-pick, dose response (AID 588343); format: functional; details: Homo sapiens
# Streptococcus = test: GAS UMAA2166 growth inhibition – luminescence, BacTiterGlo, counter-screen for streptokinase expression inhibitor project, dose response (AID 1915); format: functional, organism-based;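 note: potency for reduction of bacterial viability or growth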
# [6] = test system: Streptococcus sp. 'group A'; test: Streptococcus pyogenes SK(-)GAS viability under kanamycin – luminescence, BacTiterGlo, confirmation, counter-screen for streptokinase expression inhibitor project, dose response (AID 1900); format: functional, organism-based
# Streptokinase A = target: T1, Streptokinase A (Streptococcus pyogenes serotype M1, UniProt P10520); test: viability-normalized secreted streptokinase activity reduction – plasminogen activation absorbance, OD405, dose response (AID 1914); format: functional, Streptococcus pyogenes M1 GAS;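 note: secreted streptokinase activity via plasminogen activation per viability signal from cell pellet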
# T1 sequence (P10520 whole entry): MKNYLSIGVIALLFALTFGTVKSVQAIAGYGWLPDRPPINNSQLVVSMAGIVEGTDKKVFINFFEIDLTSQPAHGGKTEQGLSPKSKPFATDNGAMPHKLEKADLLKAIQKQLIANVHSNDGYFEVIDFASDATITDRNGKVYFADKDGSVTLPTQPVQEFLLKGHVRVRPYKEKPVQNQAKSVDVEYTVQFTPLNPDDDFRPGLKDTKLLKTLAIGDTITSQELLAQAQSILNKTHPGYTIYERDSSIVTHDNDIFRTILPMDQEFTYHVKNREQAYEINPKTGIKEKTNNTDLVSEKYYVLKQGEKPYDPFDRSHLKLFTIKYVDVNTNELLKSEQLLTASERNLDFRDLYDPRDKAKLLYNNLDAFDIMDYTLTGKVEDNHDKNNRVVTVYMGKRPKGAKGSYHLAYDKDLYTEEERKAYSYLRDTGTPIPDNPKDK
# [7] = target: Heat shock protein HSP 90-alpha (Homo sapiens, UniProt P07900); format: functional, organism-based
# [8] = intracellular Trypanosoma cruzi inhibitors in host cells – cell-based, plate reader, cherry-pick samples, set 3, dose response (AID 651818); format: functional;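 note: compounds incubated with infected cells for about four days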
# [9] = target: DNA repair and recombination protein RAD54-like (Homo sapiens, UniProt Q92698); test: RAD54 Holliday junction migration blockers – biochemical, fluorescence, cherry-picked samples, dose series, confirmation (AID 651657); format: functional
# Steroidogenic factor 1 = Steroidogenic factor 1 (Homo sapiens, UniProt Q13285); test: Counterscreen for inverse agonists of the liver receptor homolog-1 (LRH-1; NR5A2): Luminescence-based cell-based high throughput dose response assay to identify inverse agonists of the Steroidogenic Factor 1 Nuclear Receptor (SF1; NR5A1).; format: functional
# [10] = nonselective StAR promoter luciferase inhibitors – cell-based, luminescence, luciferase reporter, counter-screen for LRH-1 inverse agonist project, dose response (AID 651969); format: functional
# [11] = target: Nuclear receptor subfamily 5 group A member 2 (Homo sapiens, UniProt O00482); format: functional, cell-based;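 note: HEK293T cells transfected with LRH-1 and a StAR promoter luciferase reporter; potency for inhibitors that lower LRH-1 driven reporter light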
# Melanocortin receptor 4 = Melanocortin receptor 4 (Homo sapiens, UniProt P32245); format: functional, cell-based;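 note: Cell-based assay with luminescence read-out, confirmatory dose-response testing for agonist activity of biased ligands at MC4R; human U2OS cells with tagged receptor and beta-arrestin; potency of agonists that increase receptor coupling to beta-arrestin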
# [12] = Trypanosoma cruzi growth suppression in host cells – NIH3T3 host cells, beta-gal luminescence, confirmation (AID 2044); format: functional, cell-based;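 note: intracellular parasites grown in NIH/3T3 mouse fibroblasts as host cells; luminescent beta-galactosidase reporter signal from transgenic T. cruzi replicating inside host cells; inhibitors lower the luminescence signal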
# [13] = NIH3T3 cell viability loss – ATP luminescence, mouse fibroblasts, counter-screen, dose response (AID 2010); format: functional, cell-based;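 note: cells exposed to compound for about 90 hours before reading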
# [14] = target: T2, DNA repair protein RAD52 homolog (Homo sapiens, UniProt P43351); format: functional, biochemical
# T2 sequence (P43351 whole entry): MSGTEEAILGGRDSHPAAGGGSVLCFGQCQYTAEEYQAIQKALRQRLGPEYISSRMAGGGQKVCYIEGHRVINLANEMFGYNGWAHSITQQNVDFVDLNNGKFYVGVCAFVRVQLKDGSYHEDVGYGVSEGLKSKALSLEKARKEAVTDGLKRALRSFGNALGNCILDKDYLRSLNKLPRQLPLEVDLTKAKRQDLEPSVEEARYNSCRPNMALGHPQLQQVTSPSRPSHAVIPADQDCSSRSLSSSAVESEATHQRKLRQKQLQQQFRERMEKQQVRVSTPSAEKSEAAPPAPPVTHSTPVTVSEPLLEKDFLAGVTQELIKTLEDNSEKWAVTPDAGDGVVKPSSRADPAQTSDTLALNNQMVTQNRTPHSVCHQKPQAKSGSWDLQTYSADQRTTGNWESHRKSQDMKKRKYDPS
# [15] = target: T3, Apoptotic protease-activating factor 1 (Homo sapiens, UniProt O14727); format: functional
# T3 sequence (O14727 whole entry): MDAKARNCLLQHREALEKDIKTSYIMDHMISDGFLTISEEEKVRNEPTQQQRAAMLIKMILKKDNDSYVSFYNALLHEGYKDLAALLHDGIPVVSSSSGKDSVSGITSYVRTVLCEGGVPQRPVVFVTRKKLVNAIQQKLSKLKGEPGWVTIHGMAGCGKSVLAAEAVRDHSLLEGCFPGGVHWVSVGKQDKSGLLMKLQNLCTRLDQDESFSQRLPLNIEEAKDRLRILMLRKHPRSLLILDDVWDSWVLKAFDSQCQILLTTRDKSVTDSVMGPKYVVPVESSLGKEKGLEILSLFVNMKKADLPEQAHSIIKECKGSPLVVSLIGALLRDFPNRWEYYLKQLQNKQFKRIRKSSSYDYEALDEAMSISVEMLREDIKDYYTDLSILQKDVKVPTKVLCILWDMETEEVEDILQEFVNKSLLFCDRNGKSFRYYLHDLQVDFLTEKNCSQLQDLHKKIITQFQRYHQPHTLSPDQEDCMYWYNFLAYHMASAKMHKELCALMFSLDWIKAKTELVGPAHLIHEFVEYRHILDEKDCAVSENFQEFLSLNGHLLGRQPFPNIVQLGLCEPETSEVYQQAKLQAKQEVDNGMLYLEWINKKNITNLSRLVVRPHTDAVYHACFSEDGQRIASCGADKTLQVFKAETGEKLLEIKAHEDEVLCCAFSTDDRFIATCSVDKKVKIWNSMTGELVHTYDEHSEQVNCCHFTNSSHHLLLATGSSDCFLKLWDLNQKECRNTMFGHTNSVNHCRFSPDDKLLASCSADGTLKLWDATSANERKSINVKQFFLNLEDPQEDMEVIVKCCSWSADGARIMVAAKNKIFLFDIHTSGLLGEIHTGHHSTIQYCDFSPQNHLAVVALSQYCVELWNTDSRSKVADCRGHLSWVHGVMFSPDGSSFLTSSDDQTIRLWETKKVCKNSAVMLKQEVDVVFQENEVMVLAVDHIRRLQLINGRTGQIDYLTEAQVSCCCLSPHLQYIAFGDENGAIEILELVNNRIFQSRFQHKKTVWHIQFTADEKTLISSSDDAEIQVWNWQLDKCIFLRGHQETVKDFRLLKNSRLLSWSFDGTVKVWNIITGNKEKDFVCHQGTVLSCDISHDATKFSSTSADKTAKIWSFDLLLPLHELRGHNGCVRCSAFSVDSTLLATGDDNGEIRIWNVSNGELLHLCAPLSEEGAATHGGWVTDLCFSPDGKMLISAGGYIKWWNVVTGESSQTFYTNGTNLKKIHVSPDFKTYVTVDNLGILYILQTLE
# [16] = Luminescence Cell-Based Dose Retest to Confirm Inhibitors of Cancer Stem Cells. [Related pubchem assays (depositor defined):AID2717, AID2721]; format: functional; details: Homo sapiens
# [17] = Counterscreen for inhibitors of Trypanosoma brucei methionyl tRNA synthetase (MetRS): Luminescence-based cell-based high throughput dose response assay to identify compounds that are cytotoxic to Jurkat human T lymphocyte cells.; format: functional
# [18] = target: T4, Methionyl-tRNA synthetase, putative (Trypanosoma brucei brucei, UniProt Q38C91); format: functional, Trypanosoma brucei brucei strain 927/4 GUTat10.1
# T4 sequence (Q38C91 whole entry): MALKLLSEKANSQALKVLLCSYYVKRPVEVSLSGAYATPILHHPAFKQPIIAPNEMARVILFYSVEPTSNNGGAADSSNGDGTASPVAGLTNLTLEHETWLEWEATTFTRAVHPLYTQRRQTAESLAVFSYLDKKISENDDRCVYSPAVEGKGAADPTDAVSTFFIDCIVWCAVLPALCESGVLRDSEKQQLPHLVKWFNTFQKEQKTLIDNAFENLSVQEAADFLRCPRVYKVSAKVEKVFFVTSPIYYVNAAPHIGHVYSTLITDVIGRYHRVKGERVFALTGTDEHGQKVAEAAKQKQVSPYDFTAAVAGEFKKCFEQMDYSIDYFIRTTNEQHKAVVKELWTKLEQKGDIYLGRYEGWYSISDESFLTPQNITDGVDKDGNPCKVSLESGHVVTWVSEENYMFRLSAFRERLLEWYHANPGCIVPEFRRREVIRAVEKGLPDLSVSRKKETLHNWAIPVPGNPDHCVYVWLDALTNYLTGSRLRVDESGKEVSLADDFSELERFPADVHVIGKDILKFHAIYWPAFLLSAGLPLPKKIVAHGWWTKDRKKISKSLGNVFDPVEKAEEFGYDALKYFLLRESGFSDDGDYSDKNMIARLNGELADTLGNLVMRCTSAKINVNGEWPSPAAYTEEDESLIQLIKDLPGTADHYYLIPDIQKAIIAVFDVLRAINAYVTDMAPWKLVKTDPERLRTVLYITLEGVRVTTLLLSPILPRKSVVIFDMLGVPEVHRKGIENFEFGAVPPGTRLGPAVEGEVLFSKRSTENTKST
# [19] = target: T4, Methionyl-tRNA synthetase, putative; format: functional, Trypanosoma brucei brucei strain 927/4 GUTat10.1; remark: listed apart in the source
# [20] = activation of miR-122 Renilla sensor silencing – cell-based, Huh7 psiCHECK-miR122, Renilla luciferase, cherry-picked, dose response (AID 651956); format: functional;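 note: huh7 hepatoma cells stably carrying a psiCHECK-2 miR-122 sensor plasmid; renilla luciferase signal reporting endogenous miR-122 activity after 48 h compound exposure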
# Sequence of DNA repair and recombination protein RAD54-like (Q92698 whole entry): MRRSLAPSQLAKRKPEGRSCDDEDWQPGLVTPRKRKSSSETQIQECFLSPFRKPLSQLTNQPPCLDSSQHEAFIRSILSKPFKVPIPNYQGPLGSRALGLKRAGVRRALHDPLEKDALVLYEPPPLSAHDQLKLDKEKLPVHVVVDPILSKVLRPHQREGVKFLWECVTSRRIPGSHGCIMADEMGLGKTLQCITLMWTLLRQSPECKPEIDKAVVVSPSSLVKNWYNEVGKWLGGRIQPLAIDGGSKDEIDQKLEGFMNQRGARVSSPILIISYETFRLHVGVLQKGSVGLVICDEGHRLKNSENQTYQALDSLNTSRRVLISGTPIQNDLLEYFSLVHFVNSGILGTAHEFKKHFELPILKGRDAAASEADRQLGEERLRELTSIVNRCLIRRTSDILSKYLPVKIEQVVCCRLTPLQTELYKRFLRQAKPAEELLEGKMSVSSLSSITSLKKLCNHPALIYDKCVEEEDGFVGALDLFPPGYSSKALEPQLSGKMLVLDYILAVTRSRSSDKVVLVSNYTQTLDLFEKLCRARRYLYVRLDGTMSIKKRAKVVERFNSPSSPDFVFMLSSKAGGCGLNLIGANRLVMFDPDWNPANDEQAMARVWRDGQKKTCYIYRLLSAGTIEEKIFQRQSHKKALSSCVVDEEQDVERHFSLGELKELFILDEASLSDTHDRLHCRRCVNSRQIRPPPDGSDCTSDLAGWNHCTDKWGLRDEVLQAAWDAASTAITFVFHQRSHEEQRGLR
# Sequence of Hepatocyte nuclear factor 4-alpha (P41235 whole entry, the tested form may be a part): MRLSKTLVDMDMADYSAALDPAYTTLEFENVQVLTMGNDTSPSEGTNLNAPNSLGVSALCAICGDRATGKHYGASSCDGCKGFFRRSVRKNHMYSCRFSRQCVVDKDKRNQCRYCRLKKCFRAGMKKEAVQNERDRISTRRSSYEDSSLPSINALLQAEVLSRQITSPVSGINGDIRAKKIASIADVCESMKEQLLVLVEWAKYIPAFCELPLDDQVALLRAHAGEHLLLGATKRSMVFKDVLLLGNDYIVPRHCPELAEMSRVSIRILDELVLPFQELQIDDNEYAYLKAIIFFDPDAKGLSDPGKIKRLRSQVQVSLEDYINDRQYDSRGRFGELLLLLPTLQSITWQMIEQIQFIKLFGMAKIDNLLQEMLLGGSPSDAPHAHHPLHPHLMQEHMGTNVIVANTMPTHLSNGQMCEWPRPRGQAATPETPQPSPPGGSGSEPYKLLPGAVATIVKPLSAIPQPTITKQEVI
# Sequence of Melanocortin receptor 4 (P32245 whole entry): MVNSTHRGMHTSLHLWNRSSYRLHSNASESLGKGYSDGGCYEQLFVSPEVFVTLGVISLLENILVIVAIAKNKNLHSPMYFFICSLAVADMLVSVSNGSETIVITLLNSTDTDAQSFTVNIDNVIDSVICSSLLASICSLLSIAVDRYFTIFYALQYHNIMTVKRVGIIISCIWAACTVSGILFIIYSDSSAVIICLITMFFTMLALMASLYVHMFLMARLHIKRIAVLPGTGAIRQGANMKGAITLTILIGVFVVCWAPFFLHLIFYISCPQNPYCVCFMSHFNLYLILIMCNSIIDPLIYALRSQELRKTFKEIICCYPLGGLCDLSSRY
# Sequence of Nuclear receptor subfamily 5 group A member 2 (O00482 whole entry): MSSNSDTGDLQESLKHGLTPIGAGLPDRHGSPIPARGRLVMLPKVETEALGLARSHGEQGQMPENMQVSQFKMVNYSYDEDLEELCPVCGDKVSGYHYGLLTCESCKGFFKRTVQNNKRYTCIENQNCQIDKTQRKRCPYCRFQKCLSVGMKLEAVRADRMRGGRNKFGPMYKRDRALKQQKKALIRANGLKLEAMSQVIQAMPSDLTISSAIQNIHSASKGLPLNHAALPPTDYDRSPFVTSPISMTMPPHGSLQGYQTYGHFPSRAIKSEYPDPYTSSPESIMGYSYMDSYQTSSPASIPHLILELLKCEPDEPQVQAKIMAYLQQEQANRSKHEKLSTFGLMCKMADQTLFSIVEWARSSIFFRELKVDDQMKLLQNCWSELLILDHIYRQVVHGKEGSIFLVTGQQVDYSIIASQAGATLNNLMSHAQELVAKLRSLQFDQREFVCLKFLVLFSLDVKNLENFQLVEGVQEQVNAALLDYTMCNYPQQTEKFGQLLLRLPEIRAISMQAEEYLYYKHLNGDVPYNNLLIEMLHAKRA
# Sequence of Steroidogenic factor 1 (Q13285 whole entry): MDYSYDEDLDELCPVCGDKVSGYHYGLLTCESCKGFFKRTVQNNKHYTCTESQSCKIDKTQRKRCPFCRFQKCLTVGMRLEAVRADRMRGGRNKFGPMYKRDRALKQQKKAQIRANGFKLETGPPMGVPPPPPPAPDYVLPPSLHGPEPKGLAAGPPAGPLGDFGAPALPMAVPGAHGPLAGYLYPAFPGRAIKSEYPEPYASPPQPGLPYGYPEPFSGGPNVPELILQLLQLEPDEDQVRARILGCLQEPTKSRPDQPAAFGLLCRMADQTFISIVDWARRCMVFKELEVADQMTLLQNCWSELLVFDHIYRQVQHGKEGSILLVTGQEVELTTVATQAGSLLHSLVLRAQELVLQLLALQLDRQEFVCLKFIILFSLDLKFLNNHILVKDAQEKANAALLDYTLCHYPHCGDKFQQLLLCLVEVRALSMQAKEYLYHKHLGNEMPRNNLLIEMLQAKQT
# Sequence of Photoreceptor-specific nuclear receptor (Q9Y5X4 whole entry, the tested form may be a part): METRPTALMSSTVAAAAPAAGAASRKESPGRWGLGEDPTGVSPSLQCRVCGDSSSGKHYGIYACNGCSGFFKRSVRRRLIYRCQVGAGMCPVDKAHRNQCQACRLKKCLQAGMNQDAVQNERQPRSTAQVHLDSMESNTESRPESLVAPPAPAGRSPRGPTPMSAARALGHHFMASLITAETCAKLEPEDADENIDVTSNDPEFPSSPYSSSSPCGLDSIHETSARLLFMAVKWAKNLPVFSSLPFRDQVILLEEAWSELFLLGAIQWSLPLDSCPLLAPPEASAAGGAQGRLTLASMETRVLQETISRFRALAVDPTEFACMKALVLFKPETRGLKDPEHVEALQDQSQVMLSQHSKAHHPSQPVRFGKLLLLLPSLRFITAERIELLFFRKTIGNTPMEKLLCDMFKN
# Sequence of Beta Lactamase (Q932Y6 whole entry, the tested form may be a part): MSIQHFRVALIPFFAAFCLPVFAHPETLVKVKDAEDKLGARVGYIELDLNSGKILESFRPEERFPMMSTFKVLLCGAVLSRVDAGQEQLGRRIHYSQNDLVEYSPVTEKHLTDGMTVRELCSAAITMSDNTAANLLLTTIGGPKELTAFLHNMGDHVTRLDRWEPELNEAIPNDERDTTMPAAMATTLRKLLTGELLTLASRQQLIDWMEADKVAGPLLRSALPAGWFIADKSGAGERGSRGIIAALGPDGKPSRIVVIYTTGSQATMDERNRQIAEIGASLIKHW
# Sequence of Paired box protein Pax-8 (Q06710 whole entry): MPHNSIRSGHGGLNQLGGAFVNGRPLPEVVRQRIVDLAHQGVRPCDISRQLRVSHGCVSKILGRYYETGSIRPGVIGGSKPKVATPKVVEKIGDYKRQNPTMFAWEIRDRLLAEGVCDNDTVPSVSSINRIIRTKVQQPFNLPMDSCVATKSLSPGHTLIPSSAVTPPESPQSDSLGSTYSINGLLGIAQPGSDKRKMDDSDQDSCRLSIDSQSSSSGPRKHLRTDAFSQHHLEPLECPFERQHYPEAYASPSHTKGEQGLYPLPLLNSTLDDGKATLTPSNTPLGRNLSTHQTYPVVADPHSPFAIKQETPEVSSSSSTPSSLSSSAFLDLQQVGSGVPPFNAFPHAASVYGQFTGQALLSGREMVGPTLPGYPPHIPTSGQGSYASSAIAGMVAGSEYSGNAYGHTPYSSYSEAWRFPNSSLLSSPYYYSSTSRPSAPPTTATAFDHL
compound,measurement,setting,value
O=[N+]([O-])c1ccc(N/N=C/C=C/c2ccco2)cc1,IC50,CHO,> 49.8 µM (inactive)
same,IC50,Beta Lactamase,4.19 µM (active)
O=C(O)CSc1cccc2cccnc12,AC50,[1],74.5 µM (active)
C=CC[n+]1c(-c2ccc(Cl)cc2Cl)csc1Nc1ccc(NC(C)=O)cc1,IC50,[2],2.75 µM (active)
C#CCN(C[C@@H]1[C@@H](OC(=O)NCc2ccccc2F)[C@@H](OC(=O)NCc2ccccc2F)Cn2c(=O)ccc(=O)n21)S(=O)(=O)c1ccc(C)cc1,IC50,[3],9.77 µM (active)
same,AC50,Paired box protein Pax-8,5.52 µM (active)
same,AC50,[4],2.58 µM (active)
same,IC50,[5],8.93 µM (active)
same,AC50,HEK293,7.17 µM (active)
Oc1ccc(/C=N/N(Cc2ccccc2)c2ccccc2)cc1,EC50,Streptococcus,9.38 µM (active)
same,EC50,[6],7.47 µM (active)
same,EC50,Streptokinase A,> 150 µM (not active)
same,AC50,[7],9.12 µM (active)
COCc1nnc(NC(=O)c2ccc(S(=O)(=O)N(CC(C)C)CC(C)C)cc2)o1,IC50,[2],8.81 µM (active)
C[C@@H]1CN([C@H](C)CO)C(=O)Cc2cc(NS(=O)(=O)c3cccs3)ccc2O[C@@H]1CN(C)S(=O)(=O)c1ccc(Cl)cc1,AC50,[8],4.11 µM (active)
CN1CCN(c2nc(-c3ccccn3)nc3ccccc23)CC1,AC50,[9],53.8 µM (active)
COc1ccc(NC(=O)CS(=O)(=O)c2ccc(C)cc2)c(OC)c1,IC50,Steroidogenic factor 1,10 µM (inactive)
same,IC50,[10],35.9 µM (inactive)
same,IC50,[11],12 µM (inactive)
Cc1ccc2sc(N(CCCN(C)C)C(=O)CN3C(=O)c4ccccc4C3=O)nc2c1C,EC50,Melanocortin receptor 4,> 89.2 µM (inactive)
same,EC50,[12],0.225 µM (active)
same,EC50,[13],> 60 µM (not active)
same,AC50,[14],13.8 µM (active)
COc1ccc2c(c1)Cc1sc(NC(=O)c3ccco3)nc1-2,IC50,[15],45.8 µM (active)
CN(C)CCCNc1nc2cc(-c3ccccc3)sc2c(=O)n1C,AC50,[14],10.8 µM (active)
same,AC50,[9],40.3 µM (active)
CC12CCC3C(CC=C4CC(O)CCC43C)C1C/C(=C\c1ccccc1F)C2=O (stereo not given),AC50,[16],2.76 µM (active)
same,EC50,Melanocortin receptor 4,> 89.2 µM (inactive)
Clc1ccc(COC(Cn2ccnc2)c2ccc(Cl)cc2Cl)c(Cl)c1 (stereo not given) [MICONAZOLE],IC50,[17],33 µM (inactive)
same,IC50,[18],12.9 µM (inactive)
same,IC50,[19],11.7 µM (inactive)
same,AC50,[7],< 0.195 µM (active)
CC(C)NC(=O)Nc1ccc2c(c1)CC(=O)N([C@H](C)CO)C[C@@H](C)[C@@H](CN(C)Cc1ccc(Oc3ccccc3)cc1)O2,AC50,[1],132 µM (active)
O=C(COC(=O)c1ccc(=O)n(Cc2ccccc2)n1)Nc1ccc2c(c1)OCCO2,IC50,Steroidogenic factor 1,35.9 µM (inactive)
same,IC50,[10],35.9 µM (inactive)
same,IC50,[11],35.9 µM (inactive)
COc1ccc(S(=O)(=O)N(C)C[C@@H]2Oc3cc(-c4cccc(F)c4)ccc3S(=O)(=O)N([C@@H](C)CO)C[C@H]2C)cc1,AC50,[20],3.72 µM (active)
O=C(NCc1ccccc1)C(c1ccccc1F)n1c(=O)c(-c2ccco2)nc2ccccc21 (stereo not given),IC50,[5],2.24 µM (active)
Cc1ccc(S(=O)(=O)N(C)C[C@@H]2Oc3c(NC(=O)CCCCCC(=O)Nc4ccccc4N)cccc3C(=O)N([C@H](C)CO)C[C@@H]2C)cc1,AC50,[8],6.27 µM (active)
C=CCN1C=C2C(=O)C(C)(OC(=O)CCC(=O)OC)C(=O)C=C2C=C1C1CC1 (stereo not given),IC50,[15],39.3 µM (active)

# — ChEMBL document CHEMBL1201862, “PubChem BioAssay data set” (2004)
